Test results from patent US20150377888A1, “Methods for Predicting and Preventing Metastasis in Triple Negative Breast Cancers” (INSERM (INSTITUT NATIONAL DE LA SANTÉ ET DE LA RECHERCHE …, priority 2013, published 2015).

Experiments:
CD95 = molecular target: T1, CD95 (Homo sapiens, UniProt P25445); experiment: MISC immunoprecipitation; assay type: cell-based; details: MDA-MB-231 and MDA-MB-468 cells stimulated with cl-CD95L
T1 construct: endogenous in cells; host or cells: MDA-MB-231 and MDA-MB-468 human TNBC breast cancer cells
T1 sequence (P25445 26-335): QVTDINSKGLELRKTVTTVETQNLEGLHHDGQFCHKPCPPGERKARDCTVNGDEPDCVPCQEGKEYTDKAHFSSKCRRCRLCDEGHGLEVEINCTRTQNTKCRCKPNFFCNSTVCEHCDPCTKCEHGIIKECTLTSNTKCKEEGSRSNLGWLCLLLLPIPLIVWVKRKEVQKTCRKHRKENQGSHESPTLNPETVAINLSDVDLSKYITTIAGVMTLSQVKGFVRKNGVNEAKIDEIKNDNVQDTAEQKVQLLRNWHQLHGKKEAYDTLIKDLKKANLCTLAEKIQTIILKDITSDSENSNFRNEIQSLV
T1 sequence (P48023 130-281 partner limits assumed): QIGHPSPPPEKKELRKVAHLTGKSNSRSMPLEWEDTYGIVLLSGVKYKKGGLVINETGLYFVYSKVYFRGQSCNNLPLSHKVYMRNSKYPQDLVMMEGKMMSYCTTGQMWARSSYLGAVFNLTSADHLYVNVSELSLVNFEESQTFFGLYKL
Protocol: Breast cancer cells (20×10^6 cells per condition) were incubated with 100 ng/ml cl-CD95L for the indicated times. The cells were then lysed, 1 μg of Apo1-3 was added to the cell lysate and CD95 was immunoprecipitated by the addition of protein A-sepharose beads (Sigma-Aldrich). For the immunoprecipitation of EGF-R, 1 μg mouse anti-EGF-R (Santa Cruz Biotechnology, CA, USA) was added to the cell lysate and EGF-R was immunoprecipitated with protein A-sepharose beads (Sigma-Aldrich). After extensive washing, the immune complex was resolved by SDS-PAGE.

PI3K = experiment: Immunoblot of Akt phosphorylation at Ser473 (hallmark of PI3K activation) in cells exposed to cl-CD95L; assay type: cell-based, human; details: all tested TNBC cell lines
Protocol: Cells were lysed for 30 min at 4° C. in lysis buffer [25 mM HEPES (pH 7.4), 1% v/v Triton X-100, 150 mM NaCl, and 2 mM EGTA supplemented with a mix of protease inhibitors (Sigma-Aldrich)]. Protein concentration was determined by the bicinchoninic acid method (PIERCE, Rockford, Ill., USA) according to the manufacturer's protocol. Proteins were separated by SDS-PAGE and transferred to a nitrocellulose membrane (GE Healthcare, Buckinghamshire, England). […] The proteins were visualized with the enhanced chemiluminescence substrate kit (ECL, GE Healthcare).

[1] = system: TNBC breast cancer cell lines (Hs578T, MDA-MB-231 and MDA-MB-468); experiment: In vitro motility assay (Boyden chambers); assay type: cell-based, human
Protocol: Boyden chambers (Millipore, Molsheim, France) containing 8 μm pore membranes were cultured in 24-well plates. After hydration of the membranes, 10^5 cells were added to the top chamber in low serum (1%)-containing medium. […] Cells were cultured for 24 h at 37° C. in a 5% CO2 humidified incubator. To quantify invasion, cells were fixed with methanol and stained with Giemsa. Stained cells were then removed from the top side of the membrane using a cotton-tipped swab and five representative pictures for each insert were taken of the invading cells from the reverse side. For each experiment, cells were lysed and absorbance at 560 nm was measured.

NADPHox = experiment: Flow cytometry analysis of intracellular ROS (H2FDA); assay type: cell-based, human
Protocol: Cells were pre-incubated for 30 min at 37° C. with 3 μM of H2FDA resuspended in PBS. The cells were then pre-incubated for an additional 30 min with or without ROS inhibitors before stimulation with 100 ng/ml cl-CD95L for the indicated times. Cells were then washed and analyzed by FACScalibur (BD Bioscience).

EGFR = EGFR phosphorylation at Tyr845 / CD95-driven EGFR activation; assay type: cell-based, human; details: MDA-MB-468 cells exposed to cl-CD95L
Protocol: Cells were lysed for 30 min at 4° C. in lysis buffer [25 mM HEPES (pH 7.4), 1% v/v Triton X-100, 150 mM NaCl, and 2 mM EGTA supplemented with a mix of protease inhibitors (Sigma-Aldrich)]. Protein concentration was determined by the bicinchoninic acid method (PIERCE, Rockford, Ill., USA) according to the manufacturer's protocol. Proteins were separated by SDS-PAGE and transferred to a nitrocellulose membrane (GE Healthcare, Buckinghamshire, England). The membrane was blocked for 15 min with TBST (50 mM Tris, 160 mM NaCl, 0.05% v/v Tween 20, pH 7.8) containing 5% w/v dried skimmed milk (TBSTM) and then incubated overnight with primary antibody at 4° C. in TBSTM. The membrane was intensively washed (TBST) and peroxidase-labeled anti-rabbit or anti-mouse (SouthernBiotech, Birmingham, Ala., US) was added for 45 min. The proteins were visualized with the enhanced chemiluminescence substrate kit (ECL, GE Healthcare).

## cl-CD95L: soluble ligand produced by metalloprotease cleavage of the transmembrane CD95L (FasL); produced in transfected 293 cells
CD95
  MISC formation: induces MISC formation
PI3K
  phosphorylation of Akt at Ser473 induced by CD95L: induced rapid phosphorylation of Akt
[1]; Hs578T, MDA-MB-231 and MDA-MB-468, Boyden chambers
  motility of TNBC cells stimulated with cl-CD95L: dramatic increase in motility
[1]; cl-CD95L at 100 pg/ml
  migration of TNBC cells, titration of cl-CD95L: induced migration of TNBC cells
NADPHox
  intracellular ROS in breast cancer cells exposed to cl-CD95L: rapid increase in intracellular ROS
EGFR
  phosphorylation of EGFR at Tyr845: resulted in phosphorylation of EGFR at Tyr845
  time of peak of EGFR Tyr845 phosphorylation: 2 min
  time of stimulation after which EGFR Tyr845 phosphorylation disappeared: 10 min
